Test results taken from the supplement of paper PMC8671470.
Structures can show the parent of a compound that is named as a salt.

System: myeloid leukemia patient primary cells Pat.5
Assay: cell viability (% survival relative to DMSO control); higher = less cytotoxic
Details: 1000 nM; 72 h
How it was run: (§1)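 Mononuclear cells from patients with AML or CML were thawed, purified on Ficoll and placed in RPMI 1640 with 10% FBS at 10,000 cells/well on 384-well plates. The plates came pre-printed with 70 compounds at five tenfold concentrations spanning 1–10,000 nM, in duplicate, and cells were exposed for 72 h. CellTiter-Glo gave viability, scaled between DMSO wells and wells with 10 μM proteasome inhibitor. Where reported, area under the curve was obtained from log-logistic fits with four parameters using the drc and PharmacoGx R packages.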

Structure (SMILES) | cell viability [%]
CC(C)(Cc1ccccc1)NCC(O)c1ccc(O)c(NS(C)(=O)=O)c1 (stereo unspecified) [Zinterol hydrochloride] | 99.9

Same assay, conditions: 10000 nM; 72 h

Structure (SMILES) | cell viability [%]
Fc1ccc(CNc2ncnc3ccc(F)cc23)cc1 [Spautin 1] | 2.01
O=C(Oc1cccc(F)c1OC(=O)c1cccc(O)c1)c1cccc(O)c1 [WZB117] | 3.37
CC(C)(Cc1ccccc1)NCC(O)c1ccc(O)c(NS(C)(=O)=O)c1 (stereo unspecified) [Zinterol hydrochloride] | 93.9

System: myeloid leukemia patient primary cells Pat.10
Assay: as above
Details: 1 nM; 72 h
How it was run: as §1

Structure (SMILES) | cell viability [%]
Fc1ccc(CNc2ncnc3ccc(F)cc23)cc1 [Spautin 1] | 73
O=C(Oc1cccc(F)c1OC(=O)c1cccc(O)c1)c1cccc(O)c1 [WZB117] | 70.4
CC(C)(Cc1ccccc1)NCC(O)c1ccc(O)c(NS(C)(=O)=O)c1 (stereo unspecified) [Zinterol hydrochloride] | 61

Same assay, conditions: 10 nM; 72 h

Structure (SMILES) | cell viability [%]
Fc1ccc(CNc2ncnc3ccc(F)cc23)cc1 [Spautin 1] | 15.3
O=C(Oc1cccc(F)c1OC(=O)c1cccc(O)c1)c1cccc(O)c1 [WZB117] | 90.9
CC(C)(Cc1ccccc1)NCC(O)c1ccc(O)c(NS(C)(=O)=O)c1 (stereo unspecified) [Zinterol hydrochloride] | 94.8

Same assay, conditions: 100 nM; 72 h

Structure (SMILES) | cell viability [%]
Fc1ccc(CNc2ncnc3ccc(F)cc23)cc1 [Spautin 1] | 96.8
O=C(Oc1cccc(F)c1OC(=O)c1cccc(O)c1)c1cccc(O)c1 [WZB117] | 74.7
CC(C)(Cc1ccccc1)NCC(O)c1ccc(O)c(NS(C)(=O)=O)c1 (stereo unspecified) [Zinterol hydrochloride] | 38.2

Same assay, conditions: 1000 nM; 72 h

Structure (SMILES) | cell viability [%]
Fc1ccc(CNc2ncnc3ccc(F)cc23)cc1 [Spautin 1] | 78.5
O=C(Oc1cccc(F)c1OC(=O)c1cccc(O)c1)c1cccc(O)c1 [WZB117] | 54.5
CC(C)(Cc1ccccc1)NCC(O)c1ccc(O)c(NS(C)(=O)=O)c1 (stereo unspecified) [Zinterol hydrochloride] | > 100

Same assay, conditions: 10000 nM; 72 h

Structure (SMILES) | cell viability [%]
Fc1ccc(CNc2ncnc3ccc(F)cc23)cc1 [Spautin 1] | 47.9
O=C(Oc1cccc(F)c1OC(=O)c1cccc(O)c1)c1cccc(O)c1 [WZB117] | 31.5
CC(C)(Cc1ccccc1)NCC(O)c1ccc(O)c(NS(C)(=O)=O)c1 (stereo unspecified) [Zinterol hydrochloride] | > 100

System: myeloid leukemia patient primary cells Pat.7
Assay: as above
Details: 1 nM; 72 h
How it was run: as §1

Structure (SMILES) | cell viability [%]
Fc1ccc(CNc2ncnc3ccc(F)cc23)cc1 [Spautin 1] | 74.6
O=C(Oc1cccc(F)c1OC(=O)c1cccc(O)c1)c1cccc(O)c1 [WZB117] | 89.6
CC(C)(Cc1ccccc1)NCC(O)c1ccc(O)c(NS(C)(=O)=O)c1 (stereo unspecified) [Zinterol hydrochloride] | 54.3

Same assay, conditions: 10 nM; 72 h

Structure (SMILES) | cell viability [%]
Fc1ccc(CNc2ncnc3ccc(F)cc23)cc1 [Spautin 1] | 70.9
O=C(Oc1cccc(F)c1OC(=O)c1cccc(O)c1)c1cccc(O)c1 [WZB117] | 97.1
CC(C)(Cc1ccccc1)NCC(O)c1ccc(O)c(NS(C)(=O)=O)c1 (stereo unspecified) [Zinterol hydrochloride] | > 100

Same assay, conditions: 100 nM; 72 h

Structure (SMILES) | cell viability [%]
Fc1ccc(CNc2ncnc3ccc(F)cc23)cc1 [Spautin 1] | > 100
O=C(Oc1cccc(F)c1OC(=O)c1cccc(O)c1)c1cccc(O)c1 [WZB117] | 85.6
CC(C)(Cc1ccccc1)NCC(O)c1ccc(O)c(NS(C)(=O)=O)c1 (stereo unspecified) [Zinterol hydrochloride] | 76.6

Same assay, conditions: 1000 nM; 72 h

Structure (SMILES) | cell viability [%]
Fc1ccc(CNc2ncnc3ccc(F)cc23)cc1 [Spautin 1] | 58.8
O=C(Oc1cccc(F)c1OC(=O)c1cccc(O)c1)c1cccc(O)c1 [WZB117] | 87.9
CC(C)(Cc1ccccc1)NCC(O)c1ccc(O)c(NS(C)(=O)=O)c1 (stereo unspecified) [Zinterol hydrochloride] | > 100

Same assay, conditions: 10000 nM; 72 h

Structure (SMILES) | cell viability [%]
Fc1ccc(CNc2ncnc3ccc(F)cc23)cc1 [Spautin 1] | 30.3
O=C(Oc1cccc(F)c1OC(=O)c1cccc(O)c1)c1cccc(O)c1 [WZB117] | 8.3
CC(C)(Cc1ccccc1)NCC(O)c1ccc(O)c(NS(C)(=O)=O)c1 (stereo unspecified) [Zinterol hydrochloride] | > 100

System: myeloid leukemia patient primary cells Pat.14
Assay: as above
Details: 1 nM; 72 h
How it was run: as §1

Structure (SMILES) | cell viability [%]
Fc1ccc(CNc2ncnc3ccc(F)cc23)cc1 [Spautin 1] | 87.2
O=C(Oc1cccc(F)c1OC(=O)c1cccc(O)c1)c1cccc(O)c1 [WZB117] | 97.9
CC(C)(Cc1ccccc1)NCC(O)c1ccc(O)c(NS(C)(=O)=O)c1 (stereo unspecified) [Zinterol hydrochloride] | 73.4

Same assay, conditions: 10 nM; 72 h

Structure (SMILES) | cell viability [%]
Fc1ccc(CNc2ncnc3ccc(F)cc23)cc1 [Spautin 1] | 56.5
O=C(Oc1cccc(F)c1OC(=O)c1cccc(O)c1)c1cccc(O)c1 [WZB117] | 61.5
CC(C)(Cc1ccccc1)NCC(O)c1ccc(O)c(NS(C)(=O)=O)c1 (stereo unspecified) [Zinterol hydrochloride] | 87.2

Same assay, conditions: 100 nM; 72 h

Structure (SMILES) | cell viability [%]
Fc1ccc(CNc2ncnc3ccc(F)cc23)cc1 [Spautin 1] | 90.5
O=C(Oc1cccc(F)c1OC(=O)c1cccc(O)c1)c1cccc(O)c1 [WZB117] | 74
CC(C)(Cc1ccccc1)NCC(O)c1ccc(O)c(NS(C)(=O)=O)c1 (stereo unspecified) [Zinterol hydrochloride] | 91.3

Same assay, conditions: 1000 nM; 72 h

Structure (SMILES) | cell viability [%]
Fc1ccc(CNc2ncnc3ccc(F)cc23)cc1 [Spautin 1] | 60.7
O=C(Oc1cccc(F)c1OC(=O)c1cccc(O)c1)c1cccc(O)c1 [WZB117] | 90.2
CC(C)(Cc1ccccc1)NCC(O)c1ccc(O)c(NS(C)(=O)=O)c1 (stereo unspecified) [Zinterol hydrochloride] | 90.7

Same assay, conditions: 10000 nM; 72 h

Structure (SMILES) | cell viability [%]
Fc1ccc(CNc2ncnc3ccc(F)cc23)cc1 [Spautin 1] | 31.2
O=C(Oc1cccc(F)c1OC(=O)c1cccc(O)c1)c1cccc(O)c1 [WZB117] | 5.34
CC(C)(Cc1ccccc1)NCC(O)c1ccc(O)c(NS(C)(=O)=O)c1 (stereo unspecified) [Zinterol hydrochloride] | 75.6

System: myeloid leukemia patient primary cells Pat.11
Assay: as above
Details: 1 nM; 72 h
How it was run: as §1

Structure (SMILES) | cell viability [%]
Fc1ccc(CNc2ncnc3ccc(F)cc23)cc1 [Spautin 1] | > 100
O=C(Oc1cccc(F)c1OC(=O)c1cccc(O)c1)c1cccc(O)c1 [WZB117] | > 100
CC(C)(Cc1ccccc1)NCC(O)c1ccc(O)c(NS(C)(=O)=O)c1 (stereo unspecified) [Zinterol hydrochloride] | 95.7

Same assay, conditions: 10 nM; 72 h

Structure (SMILES) | cell viability [%]
Fc1ccc(CNc2ncnc3ccc(F)cc23)cc1 [Spautin 1] | 96.2
O=C(Oc1cccc(F)c1OC(=O)c1cccc(O)c1)c1cccc(O)c1 [WZB117] | 94.1
CC(C)(Cc1ccccc1)NCC(O)c1ccc(O)c(NS(C)(=O)=O)c1 (stereo unspecified) [Zinterol hydrochloride] | > 100

Same assay, conditions: 100 nM; 72 h

Structure (SMILES) | cell viability [%]
Fc1ccc(CNc2ncnc3ccc(F)cc23)cc1 [Spautin 1] | 97.9
O=C(Oc1cccc(F)c1OC(=O)c1cccc(O)c1)c1cccc(O)c1 [WZB117] | > 100
CC(C)(Cc1ccccc1)NCC(O)c1ccc(O)c(NS(C)(=O)=O)c1 (stereo unspecified) [Zinterol hydrochloride] | > 100

Same assay, conditions: 1000 nM; 72 h

Structure (SMILES) | cell viability [%]
Fc1ccc(CNc2ncnc3ccc(F)cc23)cc1 [Spautin 1] | 92.2
O=C(Oc1cccc(F)c1OC(=O)c1cccc(O)c1)c1cccc(O)c1 [WZB117] | 95.1
CC(C)(Cc1ccccc1)NCC(O)c1ccc(O)c(NS(C)(=O)=O)c1 (stereo unspecified) [Zinterol hydrochloride] | 96.2

Same assay, conditions: 10000 nM; 72 h

Structure (SMILES) | cell viability [%]
Fc1ccc(CNc2ncnc3ccc(F)cc23)cc1 [Spautin 1] | 84.7
O=C(Oc1cccc(F)c1OC(=O)c1cccc(O)c1)c1cccc(O)c1 [WZB117] | 75.4
CC(C)(Cc1ccccc1)NCC(O)c1ccc(O)c(NS(C)(=O)=O)c1 (stereo unspecified) [Zinterol hydrochloride] | > 100

System: myeloid leukemia patient primary cells Pat.13
Assay: as above
Details: 1 nM; 72 h
How it was run: as §1

Structure (SMILES) | cell viability [%]
Fc1ccc(CNc2ncnc3ccc(F)cc23)cc1 [Spautin 1] | 97.7
O=C(Oc1cccc(F)c1OC(=O)c1cccc(O)c1)c1cccc(O)c1 [WZB117] | 94.5
CC(C)(Cc1ccccc1)NCC(O)c1ccc(O)c(NS(C)(=O)=O)c1 (stereo unspecified) [Zinterol hydrochloride] | 96.7

Same assay, conditions: 10 nM; 72 h

Structure (SMILES) | cell viability [%]
Fc1ccc(CNc2ncnc3ccc(F)cc23)cc1 [Spautin 1] | 78.3
O=C(Oc1cccc(F)c1OC(=O)c1cccc(O)c1)c1cccc(O)c1 [WZB117] | 86.2
CC(C)(Cc1ccccc1)NCC(O)c1ccc(O)c(NS(C)(=O)=O)c1 (stereo unspecified) [Zinterol hydrochloride] | 99.8

Same assay, conditions: 100 nM; 72 h

Structure (SMILES) | cell viability [%]
Fc1ccc(CNc2ncnc3ccc(F)cc23)cc1 [Spautin 1] | 89.4
